The values that follow come from US12570638B2, “Fused imidazole derivatives as AHR antagonists” (Sail Biomedicines, Inc., priority 2020, dated 2026).

Series [1] in a line: Caco-2 Permeability Assay. The class given is in vitro ADME. The following applies: human; for Papp A→B at 2 h, 1 μM: Caco-2, pH 7.4, apical to basolateral, read-out: Caco2 Papp (AB); for Papp B→A at 2 h, 1 μM: Caco-2, pH 7.4, basolateral to apical, read-out: Caco2 Papp (BA). The protocol:
Preparation of Caco-2 Cells: 50 μL and 25 mL of cell culture medium were added to each well of the Transwell insert and reservoir, respectively. The HTS transwell plates were incubated at 37° C., 5% CO2 for 1 hour before cell seeding. Caco-2 cells were diluted to 6.86×10^5 cells/mL with culture medium and 50 μL of cell suspension were dispensed into the filter well of the 96-well HTS Transwell plate. Cells were cultivated for 14-18 days in a cell culture incubator at 37° C., 5% CO2, 95% relative humidity. Cell culture medium was replaced every other day, beginning no later than 24 hours after initial plating.
Assessment of Cell Monolayer Integrity: Medium was removed from the reservoir and each Transwell insert and replaced with prewarmed fresh culture medium. Transepithelial electrical resistance (TEER) across the monolayer was measured using Millicell Epithelial Volt-Ohm measuring system (Millipore, USA). The Plate was returned to the incubator once the measurement was done. The TEER value was calculated according to the following equation: TEER measurement (ohms)×Area of membrane (cm^2)=TEER value (ohm·cm^2)
TEER value should be greater than 230 ohm·cm^2, which indicates the well-qualified Caco-2 monolayer.
Preparation of Solutions: 2 mM stock solutions in DMSO of control compounds were prepared and diluted with HBSS (10 mM HEPES, pH 7.4) to get 10 μM working solution. 0.2 mM stock solutions of test compounds in DMSO were prepared and diluted with HBSS (10 mM HEPES, pH 7.4 with 0.5% BSA) to get 1 μM working solution. Metoprolol, erythromycin and cimetidine were used as control compounds.
Performing the Drug Transport Assay: The Caco-2 plate was removed from the incubator. The monolayer was washed twice with pre-warmed HBSS (10 mM HEPES, pH 7.4). The plate was incubated at 37° C. for 30 minutes. To determine the rate of drug transport in the apical to basolateral direction, 125 μL of the working solution was added to the Transwell insert (apical compartment). A 50 μL sample was transferred immediately from the apical compartment to 200 μL of acetonitrile containing IS (100 nM alprazolam, 200 nM Caffeine and 100 nM tolbutamide) in a new 96-well plate as the initial donor sample (A-B) and it was vortexed at 1000 rpm for 10 minutes. The wells in the receiver plate (basolateral compartment) were filled with 235 μL of transport buffer. To determine the rate of drug transport in the basolateral to apical direction, 285 μL of the working solution were added to the receiver plate wells (basolateral compartment). […]
Data analysis: All calculations were carried out using Microsoft Excel. Peak areas were determined from extracted ion chromatograms. […]
On the technique in general: Caco-2 monolayers are a common model of the intestinal barrier.

The nature of series [2]: Hepatocyte Stability Assay, rat. The class given is in vitro ADME. The following applies: cryopreserved hepatocytes, read-out: Rat hepatocyte clearance. The method, then:
Preparation of working solutions: 10 mM stock solutions of test compound and positive control were prepared in DMSO. In separate conical tubes, the 10 mM solution of test compound and the positive control were diluted to 100 μM by combining 198 μL of 50% acetonitrile/50% water and 2 μL of 10 mM stock.
Preparation of Hepatocytes: Incubation medium (William's E Medium supplemented with GlutaMAX) and hepatocyte thawing medium were placed in a 37° C. water bath and allowed warming for at least 15 minutes prior to use. A vial of cryopreserved hepatocytes was transferred from storage, ensuring that vials remained at cryogenic temperatures until thawing process ensued. Cells were thawed by placing the vial in a 37° C. water bath and gently shaking the vials for 2 minutes. […] Using an AO/PI Staining, cells were counted and the viable cell density was determined. Cells with poor viability (<75% viability) were determined to be not acceptable for use. […]
Data Analysis: All calculations were carried out using Microsoft Excel. Peak areas were determined from extracted ion chromatograms. In vitro half-life (t1/2) of parent compound was determined by regression analysis of the percent parent disappearance vs. time curve.
The in vitro half-life (in vitro t1/2) was determined from the slope value: in vitro t1/2=0.693/k […]

Turning to `Cn1nccc1C(=O)Nc1ccc2nc(-c3ccccc3C(F)(F)F)[nH]c2c1` [A, 1-methyl-N-(2-(2-(trifluoromethyl)phenyl)-1H-benzo[d]imidazol-6-yl)-1H-pyrazole-5-carboxamide], in series [1], the Papp A→B at 2 h, 1 μM is > 10 ×10⁻⁶ cm/s and the Papp B→A at 2 h, 1 μM was > 10 ×10⁻⁶ cm/s.
Consider `Cn1ncnc1C(=O)Nc1ccc2nc(-c3ccccc3C(F)(F)F)[nH]c2c1` [Compound H, 1-methyl-N-(2-(2-(trifluoromethyl)phenyl)-1H-benzo[d]imidazol-6-yl)-1H-1,2,4-triazole-5-carboxamide], for which the CLint scaled at 1 μM in series [2] was < 20 mL/min/kg. In addition, in series [1], the Papp A→B at 2 h, 1 μM is > 10 ×10⁻⁶ cm/s and the Papp B→A at 2 h, 1 μM is > 10 ×10⁻⁶ cm/s.
